{"source": "paper PMC3815523", "about": "(ACS chemical biology, 2013)", "key": {"mSTING CTD": {"biological_target": "T1, mSTING CTD (Mus musculus, UniProt Q3TBT3)", "T1 sequence (Q3TBT3 139-378)": "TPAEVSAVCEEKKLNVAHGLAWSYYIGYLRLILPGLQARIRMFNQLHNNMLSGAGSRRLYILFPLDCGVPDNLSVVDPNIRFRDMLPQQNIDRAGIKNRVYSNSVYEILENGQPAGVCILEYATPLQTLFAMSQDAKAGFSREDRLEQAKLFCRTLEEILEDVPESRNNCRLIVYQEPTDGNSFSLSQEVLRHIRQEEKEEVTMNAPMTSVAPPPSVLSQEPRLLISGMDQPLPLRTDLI", "assay": "Fluorescence polarization competition assay with fluorescein-labeled c-di-GMP", "type": "binding", "conditions": "FP"}, "[1]": {"biological_target": "hSTING CTD (amino acid residues 139-379) (Homo sapiens, UniProt Q86WV6)", "sequence (Q86WV6 140-379)": "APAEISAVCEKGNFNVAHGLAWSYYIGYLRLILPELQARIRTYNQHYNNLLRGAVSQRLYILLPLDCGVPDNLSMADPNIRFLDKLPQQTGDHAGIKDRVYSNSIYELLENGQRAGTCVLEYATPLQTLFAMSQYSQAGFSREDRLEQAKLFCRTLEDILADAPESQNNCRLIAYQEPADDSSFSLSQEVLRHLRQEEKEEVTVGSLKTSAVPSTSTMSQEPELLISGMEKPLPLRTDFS", "assay": "Isothermal titration calorimetry, hSTING-CTD", "type": "binding"}, "[2]": {"biological_target": "T2, mSTING CTD (amino acids 139-378) (Mus musculus, UniProt Q3TBT3)", "T2 sequence (Q3TBT3 139-378)": "T1 sequence (Q3TBT3 139-378)", "assay": "Isothermal titration calorimetry, mSTING-CTD", "type": "binding", "conditions": "ITC"}, "[3]": {"tested_on": "full-length mSTING in 293T cells", "assay": "Response of 293T cells overexpressing full-length mSTING", "type": "cell-based, mouse", "conditions": "293T cells overexpressing mSTING; c-di-GMP 2 μg/ml transfected, DMXAA 500 μM"}, "TBK1 in Raw264.7 cells": {"tested_on": "TBK1 in Raw264.7 cells", "assay": "TBK1 phospho-Ser 172 immunoblot in Raw264.7 cells", "type": "cell-based, mouse"}, "IRF3": {"tested_on": "IRF3", "assay": "IRF3-driven luciferase reporter cell line", "type": "cell-based, mouse"}, "Raw264.7 cells": {"tested_on": "Raw264.7 cells", "assay": "IFN-β secretion in Raw264.7 cells", "type": "cell-based", "conditions": "Raw264.7 mouse macrophage cell line"}, "human leukocytes": {"tested_on": "human leukocytes", "conditions": "cited from earlier work"}}}
{"smiles": "Nc1nc2c(ncn2[C@@H]2O[C@@H]3COP(=O)(O)O[C@H]4[C@@H](O)[C@H](n5cnc6c(=O)[nH]c(N)nc65)O[C@@H]4COP(=O)(O)O[C@H]3[C@H]2O)c(=O)[nH]1", "note": "[c-di-GMP, cyclic-di-GMP]", "values": [{"measurement": "competition with fluorescent c-di-GMP probe (apparent IC50)", "setting": "mSTING CTD", "result": "competed out this signal"}, {"measurement": "Kd", "setting": "[1]; ITC, 25°C, hSTING CTD", "result": "~5200", "unit": "nM"}, {"measurement": "stoichiometry", "setting": "[1]; ITC, hSTING CTD", "result": 0.59}, {"measurement": "higher binding affinity of the mouse homolog vs hSTING", "setting": "[2]; mSTING CTD vs hSTING CTD", "result": "~50", "unit": "fold"}, {"measurement": "Kd", "setting": "[2]; read-out: dissociation constant (Kd), 25°C, mSTING CTD", "result": "~110", "unit": "nM"}, {"measurement": "responsiveness of cells", "setting": "[3]", "result": "responsive"}]}
{"smiles": "Cc1ccc2c(=O)c3cccc(CC(=O)O)c3oc2c1C", "note": "[DMXAA, 5,6– dimethylxanthenone-4-acetic acid]", "values": [{"measurement": "TBK1 phosphorylation (phospho-Ser 172)", "setting": "TBK1 in Raw264.7 cells", "result": "became phosphorylated in response to DMXAA in a dose- and time-dependent manner"}, {"measurement": "IRF3 activation and nuclear translocation", "setting": "IRF3", "result": "induces IRF3 activation and nuclear translocation"}, {"measurement": "interaction with hSTING CTD", "setting": "[1]; ITC", "result": "no interaction"}, {"measurement": "affinity for the CTD of hSTING lower than for mSTING", "setting": "[1]; from upper bound of detection by ITC ∼100 μM", "result": "at least 1000 fold"}, {"measurement": "responsiveness of cells", "setting": "[3]", "result": "responsive"}, {"measurement": "IFN-β secretion", "setting": "Raw264.7 cells", "result": "induces IFN-β secretion"}]}
{"smiles": "Cc1cccc2oc3c(CC(=O)O)cccc3c(=O)c12", "note": "[XAA-8Me]", "values": [{"measurement": "IL-6, IL-8 and TNFα secretion", "setting": "human leukocytes", "result": "increased"}]}
